Laboratory results from patent publication US9695148B2, “2-pyridone compound” (TAISHO PHARMACEUTICAL CO., LTD., priority 2012, dated 2017).
pEC50: −log10 of the molar value.

How the values were obtained:
human liver GK = target: T1, human liver GK (Homo sapiens, UniProt P35557); test: GK activation test; assay type: biochemical; conditions: GST-fused human liver GK, 4 mM glucose, 2 mM ATP, absorbance at 405 nm after 15 minutes; read-out: EC50 (test compound concentration needed to activate 50% of the maximum activation ability)
T1 construct: GST (glutathione S-transferase) (N); made in house; host or cells: E. coli
T1 sequence (P35557 1-466 isoform P35557-2): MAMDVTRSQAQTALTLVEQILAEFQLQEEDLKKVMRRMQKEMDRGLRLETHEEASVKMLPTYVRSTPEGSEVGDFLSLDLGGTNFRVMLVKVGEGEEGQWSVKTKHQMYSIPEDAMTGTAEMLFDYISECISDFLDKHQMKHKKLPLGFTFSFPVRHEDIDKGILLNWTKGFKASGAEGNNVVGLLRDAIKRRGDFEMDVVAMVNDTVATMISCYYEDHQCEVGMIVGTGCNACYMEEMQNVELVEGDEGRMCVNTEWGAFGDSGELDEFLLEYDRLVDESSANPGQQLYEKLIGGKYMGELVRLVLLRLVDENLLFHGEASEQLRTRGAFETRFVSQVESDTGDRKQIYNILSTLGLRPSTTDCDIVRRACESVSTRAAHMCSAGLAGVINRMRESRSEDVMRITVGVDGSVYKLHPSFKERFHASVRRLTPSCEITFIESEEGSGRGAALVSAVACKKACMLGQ
Description: The GK activation test for the test compounds was carried out by the method of Van Schaftingen et al. (Eur. J. Biochem. 179:179-184, 1989) with partial modifications. The GK activity was measured by the change in the absorbance based on an amount of thio-NADH, which is a reduced form product converted from thio-NAD+ (thionicothinamide-adeninedinucleotide) when dehydrogenating glucose 6-phosphate, produced by GK using glucose as a matrix, with G6PDH (glucose-6-phosphate dehydrogenase).
The enzyme source used in this assay, human liver GK, was expressed in E. coli as a fusion protein with GST (glutathione S-transferase) added to the amino terminus and was purified using Glutathione Sepharose 4B (Amersham Biosciences).
The test was carried out using flat-bottom 96-well half area microplates (Corning). A solution of the test compound in dimethyl sulfoxide (DMSO) at a final concentration of 1% in DMSO and DMSO as a control were added to each well of the plates. Further, 25 mM Hepes-KOH (pH=7.1), 25 mM KCl, 2 mM MgCl2, 2 mM thio-NAD+, 4 mM glucose, 1 mM DTT (dithiothreitol), 0.01 units/μL G6PDH and 2 μg/mL human liver GK were added as the final concentrations, respectively, to each of the wells. Subsequently, ATP was added to each of the wells to give the final concentration of 2 mM, and the reaction was started. The microplates were allowed to stand at room temperature. After 15 minutes from the start of reaction, the absorbance at 405 nm was measured using an absorption spectrometer for microplate.
The GK activity maximally activated by the test compound was taken as the maximum activation ability, and the test compound concentration (nM) needed to activate 50% of that maximum activation ability was expressed as EC50.

C57BL6/J mice = test: Hypoglycemia test using C57BL6/J mice; assay type: in vivo; conditions: oral, ad libitum fed C57BL6/J mice, plasma glucose AUC 0-6 hours vs control group
Description: The test to verify the hypoglycemic effect of the test compounds was carried out in accordance with a method commonly used and represented by the method of Grimsby et. al (Science 301: 370-373, 2003).
The body weight of C57BL6/J mice (N=6), who were ad libitum fed before the test, was measured. The test compound was suspended or dissolved in the base to be administered (0.5% methyl cellulose) at a concentration of 0.06 to 20 mg/mL. The mice were orally administered with 5 mL/kg of a drug solution (equivalent to 0.3 to 100 mg/kg of the test compound) or control (only the base to be administered). About 60 μL of blood was collected from the tail vein using a capillary tube immediately before administration of the test compound and 0.5, 1, 2, 4 and 6 hours after administration of the test compound. The collected blood was centrifuged and subsequently measured for the plasma glucose concentration. The area under the curve (AUC) was calculated from changes over time in the plasma glucose concentration after administration of the test compound, and a reduction rate (%) to AUC of the control group was calculated. The dose at which an AUC decreasing percentage was 20% (ED20 value; mg/kg) was calculated from the dose response curve having the AUC reduction rate plotted on the vertical axis and the dose plotted on the horizontal axis.

| pEC50 (human liver GK) | SMILES | ED20 (dose at which the plasma glucose AUC decreasing percentage was 20%) (C57BL6/J mice) |
| --- | --- | --- |
| 6.53 | CC(F)(F)c1ccc([C@@H](C[C@H]2CCC(=O)N2)c2ccc(C3CC3)c(=O)[nH]2)cc1 [Compound [1], 3-cyclopropyl-6-{(1R)-1-[4-(1,1-difluoroethyl)phenyl]-2-[(2R)-5-oxopyrrolidin-2-yl]ethyl}pyridin-2(1H)-one] | 4.2 mg/kg |
| 5.88 | CC(F)(F)c1ccc([C@@H](C[C@H]2CCC(=O)N2)c2ccc(C3CC3)c(=O)[nH]2)cc1 (single isomer, unassigned) [Compound B] | 15.6 mg/kg |
| 6.28 | CCc1ccc([C@@H](C[C@H]2CCC(=O)N2)c2ccc(C3CC3)c(=O)[nH]2)cc1 [Compound A] | 11.5 mg/kg |
| 6.22 | O=C1CC[C@H](C[C@H](c2ccc(C(F)F)cc2)c2ccc(C3CC3)c(=O)[nH]2)N1 [Compound C] | 32.0 mg/kg |
